Here are results for 15 molecules from PubChem BioAssay AID296 (DTP/NCI, 2004).

Several values for one entry are separate records, joined by “and”; a condition that tells them apart may be missing. Equal entries are not always repeated. Records with an inconclusive call do not appear.

This assay concerns MX-1 breast xenograft, nude mice, tumor weight T/C. The assay is described as follows: NCI In Vivo Anticancer Drug Screen. Data for tumor model Human Mammary Carcinoma MX-1 Xenograft (intrarenal inoculation) in NU/NU Swiss (nude) mice. The following applies: endpoint: mean tumor weight change, higher = larger tumour. A digest of the protocol: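 Read-out: treated (T) over vehicle control (C) ratio of survival or tumor size. Dosing in animals carrying the transplanted tumor.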
A general note: In xenograft studies the graft and the host belong to different species.

[1] abbreviates: dose: 100.0 mg/kg/injection, schedule: Q01DX010 (sc), vehicle: saline.
Where [2] appears, read: dose: 200.0 mg/kg/injection, schedule: Q01DX010 (sc), vehicle: saline.

For `CN(Cc1cnc2nc(N)nc(N)c2n1)c1ccc(C(=O)N[C@@H](CCC(=O)O)C(=O)O)cc1`, the T/C reads like this: (dose: 0.5 mg/kg/injection, schedule: Q01DX010 (sc), vehicle: sodium bicarbonate) 86 % of control; (dose: 1.0 mg/kg/injection, schedule: Q01DX010 (sc), vehicle: sodium bicarbonate) 175 % of control.
As for `CN1CCN(c2ccc3nc(-c4ccc5nc(-c6ccc(O)cc6)[nH]c5c4)[nH]c3c2)CC1`, the T/C is, setting by setting: (dose: 100.0 mg/kg/injection, schedule: Q04DX003 (sc), vehicle: saline) 69 % of control; (dose: 225.0 mg/kg/injection, schedule: Q04DX003 (sc), vehicle: saline) 100 % of control; (dose: 225.0 mg/kg/injection, schedule: Q04DX003 (sc), vehicle: suspension in saline) 102 % of control; (dose: 250.0 mg/kg/injection, schedule: Q04DX003 (sc), vehicle: suspension in saline) 67 % of control; (dose: 400.0 mg/kg/injection, schedule: Q04DX003 (sc), vehicle: saline) 52 % of control; (dose: 500.0 mg/kg/injection, schedule: Q04DX003 (sc), vehicle: saline) 123 % of control. For the same molecule, the T/C is 176 % of control (dose: 800.0 mg/kg/injection, schedule: Q04DX003 (sc), vehicle: suspension in saline); 69 % of control (dose: 1000.0 mg/kg/injection, schedule: Q04DX003 (sc), vehicle: saline); 199 % of control (dose: 1000.0 mg/kg/injection, schedule: Q04DX003 (sc), vehicle: suspension in saline).
Consider `Nc1ccc2ccc(NS(=O)(=O)N3CCCCC3)cc2c1`, for which the T/C reads like this: (dose: 150.0 mg/kg/injection, schedule: Q04DX003 (ip), vehicle: saline with Tween-80) 110 % of control; (dose: 300.0 mg/kg/injection, schedule: Q04DX003 (ip), vehicle: saline with Tween-80) 72 % of control; (dose: 600.0 mg/kg/injection, schedule: Q04DX003 (ip), vehicle: saline with Tween-80) 86 % of control; (dose: 1200.0 mg/kg/injection, schedule: Q04DX003 (ip), vehicle: saline with Tween-80) 92 % of control.
As to `CCCCc1ccc2nc(NC(=O)OC)[nH]c2c1`, the T/C is, setting by setting: (dose: 200.0 mg/kg/injection, schedule: Q01DX010 (sc), vehicle: saline with Tween-80) 109 % of control; (dose: 400.0 mg/kg/injection, schedule: Q01DX010 (sc), vehicle: saline with Tween-80) 69 % of control; (dose: 800.0 mg/kg/injection, schedule: Q01DX010 (sc), vehicle: saline with Tween-80) 48 % of control.
In the case of `Cc1cc(NCCCCCCCCNc2cc(C)nc3cc(N(C)C)ccc23)c2ccc(N(C)C)cc2n1`, the T/C (dose: 150.0 mg/kg/injection, schedule: Q04DX003 (sc), vehicle: distilled water + Tween-80 + alcohol) was 67 % of control; the T/C (dose: 300.0 mg/kg/injection, schedule: Q04DX003 (sc), vehicle: distilled water + Tween-80 + alcohol) was 74 % of control; the T/C (dose: 600.0 mg/kg/injection, schedule: Q04DX003 (sc), vehicle: distilled water + Tween-80 + alcohol) is 43 % of control; the T/C (dose: 1200.0 mg/kg/injection, schedule: Q04DX003 (sc), vehicle: distilled water + Tween-80 + alcohol) is 71 % of control.
Take `O=C1C(NCCO)=C(N2CC2)C(=O)C(NCCO)=C1N1CC1`: the T/C (dose: 0.5 mg/kg/injection, schedule: Q04DX003 (ip), vehicle: saline) was 69 % of control; the T/C (dose: 0.75 mg/kg/injection, schedule: Q04DX003 (sc), vehicle: saline) was 64 % of control; the T/C (dose: 1.0 mg/kg/injection, schedule: Q04DX003 (ip), vehicle: saline) is 50 % of control; the T/C (dose: 1.5 mg/kg/injection, schedule: Q04DX003 (sc), vehicle: saline) is 37 % of control; the T/C (dose: 2.0 mg/kg/injection, schedule: Q04DX003 (ip), vehicle: saline) was 29 % of control; the T/C (dose: 2.0 mg/kg/injection, schedule: Q04DX003 (sc), vehicle: saline) is 66 % of control. Moreover, the T/C by setting is: (dose: 3.0 mg/kg/injection, schedule: Q04DX003 (sc), vehicle: saline) 9 % of control; (dose: 4.0 mg/kg/injection, schedule: Q04DX003 (ip), vehicle: saline) 8 % of control; (dose: 8.0 mg/kg/injection, schedule: Q04DX003 (sc), vehicle: saline) -90 % of control.
As to `N/C=N/O`, the T/C reads like this: under setting [1], 107 % of control; under setting [2], 53 % of control; (dose: 400.0 mg/kg/injection, schedule: Q01DX010 (sc), vehicle: saline) 81 % of control.
In the case of `O=C(O)C(O)C(O)C1[O][Sb][O]C1C(=O)O` (stereo not given), the T/C is, setting by setting: (dose: 75.0 mg/kg/injection, schedule: Q04DX003 (sc), vehicle: saline) 91 % of control; (dose: 150.0 mg/kg/injection, schedule: Q04DX003 (sc), vehicle: saline) 99 % of control.
As to `[CH3][Sn]([CH3])([Cl])[c]1cc[c]([Sn]([CH3])([CH3])[Cl])cc1`, the T/C runs as follows: (dose: 1.25 mg/kg/injection, schedule: Q04DX003 (ip), vehicle: saline) 98 % of control; (dose: 2.5 mg/kg/injection, schedule: Q04DX003 (ip), vehicle: saline) 101 % of control; (dose: 5.0 mg/kg/injection, schedule: Q04DX003 (ip), vehicle: saline) 89 % of control.
In the case of `O=C1C=C(C2OC(CO)C(O)C2O)C(=O)N1` (stereo not given), the T/C reads like this: (dose: 6.25 mg/kg/injection, schedule: Q01DX010 (sc), vehicle: saline) 79 % of control; (dose: 12.5 mg/kg/injection, schedule: Q01DX010 (sc), vehicle: saline) 123 % of control.
For `Nc1nc(F)nc2c1ncn2C1OC(COP(=O)(O)O)C(O)C1O` (stereo not given), the T/C was 86 % of control (dose: 50.0 mg/kg/injection, schedule: Q01DX010 (sc), vehicle: saline); 69 % of control under setting [1]; 91 % of control under setting [2].
Take `CN=C(N)N/N=C(\C)c1ccc2c(c1)Cc1ccccc1-2`: the T/C is, setting by setting: (dose: 150.0 mg/kg/injection, schedule: Q04DX003 (sc), vehicle: saline with Tween-80) 105 % of control; (dose: 300.0 mg/kg/injection, schedule: Q04DX003 (sc), vehicle: saline with Tween-80) 115 % of control; (dose: 600.0 mg/kg/injection, schedule: Q04DX003 (sc), vehicle: saline with Tween-80) 105 % of control; (dose: 1200.0 mg/kg/injection, schedule: Q04DX003 (sc), vehicle: saline with Tween-80) 191 % of control.
As to `[Cl][Pt+2][Cl].[NH-]CC1(C[NH-])CCC1`, the T/C is, setting by setting: (dose: 3.12 mg/kg/injection, schedule: Q04DX003 (sc), vehicle: suspension in saline) 48 % of control; (dose: 6.25 mg/kg/injection, schedule: Q04DX003 (sc), vehicle: saline) 6 % of control; (dose: 6.25 mg/kg/injection, schedule: Q04DX003 (sc), vehicle: suspension in saline) 19 % of control and 29 % of control; (dose: 12.5 mg/kg/injection, schedule: Q04DX003 (sc), vehicle: suspension in saline) 6 % of control and 16 % of control; (dose: 25.0 mg/kg/injection, schedule: Q04DX003 (sc), vehicle: suspension in saline) -74 % of control and -54 % of control.
Turning to `CCC1CCCCN1C(=S)N/N=C(\C)c1ccccn1` (stereo not given), the T/C (dose: 18.75 mg/kg/injection, schedule: Q04DX003 (sc), vehicle: saline with Tween-80) is 53 % of control; the T/C (dose: 37.5 mg/kg/injection, schedule: Q04DX003 (sc), vehicle: saline with Tween-80) was 97 % of control; the T/C (dose: 75.0 mg/kg/injection, schedule: Q04DX003 (sc), vehicle: saline with Tween-80) was 82 % of control.
Consider `CN(C)c1ccc2c(SCC(=O)OCC(=O)[C@@]3(O)CC[C@H]4[C@@H]5CCC6=CC(=O)C=C[C@]6(C)[C@H]5C(=O)C[C@@]43C)c3ccc(N(C)C)cc3nc2c1`, for which the T/C is 53 % of control (dose: 75.0 mg/kg/injection, schedule: Q04DX003 (sc), vehicle: Klucel (hydroxypropylcellulose) (HPC)); 92 % of control (dose: 150.0 mg/kg/injection, schedule: Q04DX003 (sc), vehicle: Klucel (hydroxypropylcellulose) (HPC)); 39 % of control (dose: 300.0 mg/kg/injection, schedule: Q04DX003 (sc), vehicle: Klucel (hydroxypropylcellulose) (HPC)); 55 % of control (dose: 600.0 mg/kg/injection, schedule: Q04DX003 (sc), vehicle: Klucel (hydroxypropylcellulose) (HPC)).
